Assay results from patent US20110190215A1, “THERAPEUTIC USE OF PEPTIDES” (priority 2008, published 2011).
“Also recorded” adds a separate entry of the source. Where no end group is shown, it is not given here.

Tests used:
[1] = tested on: leptin; test: Proteomic microarray (antibody membrane, chemiluminescence): leptin protein expression in TR146 cells; assay type: cell-based; conditions: TR146 buccal mucosal cells, 2.0 μM peptide, 24 hours, vs mock-treated
Protocol: (§1) TR146 buccal mucosal cells, obtained from Cancer Research U.K., were propagated in Dulbecco's modified Eagle medium (DMEM) high glucose (Gibco). The culture medium supplemented with 3.7 mg/ml NaHCO3, 10% FCS, 50 units/ml penicillin G, and […] streptomycin sulphate. Cells were passaged when 90% confluence was reached. The medium was discarded, and cells were washed twice with sterile DPBS (without calcium and magnesium, Cellgro) and 0.25% trypsin-EDTA solution (Gibco) was added. The flask was placed at 37° C. for 10 minutes and then detached cells were suspended in growth medium and seeded in new flasks (dishes micro-well plates).
For proteomic microarray analysis, cells at 75-80% confluence in T75 flasks were treated with equimolar (2.0 μM) concentrations of a peptide consisting of the sequence FVAPFPEVFGKEKV (SEQ ID NO 2), […] (SEQ ID NO 3), GPVRGPFPI (SEQ ID NO 4), EPVLGPVRGPFPI (SEQ ID NO 5), VPYPQRDMPIQ (SEQ ID NO 6), […] (SEQ ID NO 7), EPVLGPVR (SEQ ID NO 8) and […] (SEQ ID NO 1). Mock-treated cells received same volume of solvent. After 24 hours the cells were washed twice with DPBS, trypsinized, suspended in 5 ml growth media and centrifuged (800 g for 10 minutes). Cells were resuspended in 5 ml DPBS and centrifuged again.
Antibodies specific to leptin were immobilised on the surface of a membrane. Sample extracts of cell samples each treated with peptides of amino acid sequences SEQ ID NO 1, 2, 3, 4, 5, 6, 7 and 8 were incubated with the membranes. Biotinylated antibodies, specific to leptin-antibody complexes, were then incubated with the membranes. Bound leptin was quantified by measuring chemiluminescence.

[2] = tested on: rho 2; test: Microarray gene expression in peptide-treated TR146 cells: rho 2; assay type: cell-based; conditions: TR146 buccal mucosal cells, 2.0 μM peptide, 6 hours, vs mock-treated, Affymetrix Human Genome Focus Array
Protocol: as §1
(§2) For microarray analysis, cells at 75-80% confluence in T75 flasks were treated with equimolar (2.0 μM) concentrations of peptide of SEQ ID NO 5. Mock-treated cells received same volume of solvent. After 6 hours the cells were washed twice with DPBS, trypsinized, suspended in 5 ml growth media and centrifuged (800 g for 10 minutes). Cells were resuspended in 5 ml DPBS and centrifuged again. […]
(§3) RNA isolation for Microarray Procedure Total RNAs were isolated with an Ambion RNAqueous Kit, and cDNAs were synthesized and purified for Affymetrix GeneChip® Human Genome Focus Array analysis. Raw data were analyzed by the Affymetrix NetAFFX Analysis Center online tools.
(§4) The nature of change of gene expression profile in response to the peptide was determined. […]

[3] = tested on: gamma-aminobutyric acid A receptor (GABAAR); test: Microarray gene expression in peptide-treated TR146 cells: GABA A receptor; assay type: cell-based; conditions: TR146 buccal mucosal cells, 2.0 μM peptide, 6 hours, vs mock-treated, Affymetrix Human Genome Focus Array
Protocol: as §1, §2, §3, §4

[4] = tested on: beta 2 gamma-aminobutyric acid receptor, theta; test: Microarray gene expression in peptide-treated TR146 cells: beta 2 GABA receptor, theta; assay type: cell-based; conditions: TR146 buccal mucosal cells, 2.0 μM peptide, 6 hours, vs mock-treated, Affymetrix Human Genome Focus Array
Protocol: as §1, §2, §3, §4

[5] = tested on: glutamate decarboxylase 2 (pancreatic islets, lung and brain, 65 kDa); test: Microarray gene expression in peptide-treated TR146 cells: glutamate decarboxylase 2 (65 kDa); assay type: cell-based; conditions: TR146 buccal mucosal cells, 2.0 μM peptide, 6 hours, vs mock-treated, Affymetrix Human Genome Focus Array
Protocol: as §1, §2, §3, §4

[6] = tested on: Resistin; test: Microarray gene expression in peptide-treated TR146 cells: resistin; assay type: cell-based; conditions: TR146 buccal mucosal cells, 2.0 μM peptide, 6 hours, vs mock-treated, Affymetrix Human Genome Focus Array
Protocol: as §1
(§5) For microarray analysis, cells at 75-80% confluence in T75 flasks were treated with equimolar (2.0 μM) concentrations of peptides. Mock-treated cells received same volume of solvent. After 6 hours the cells were washed twice with DPBS, trypsinized, suspended in 5 ml growth media and centrifuged (800 g for 10 minutes). Cells were resuspended in 5 ml DPBS and centrifuged again. Cell pellets were used for RNA isolation.
(§6) Total RNAs were isolated with an Ambion RNAqueous Kit, and cDNAs were synthesized and purified for Affymetrix GeneChip® Human Genome Focus Array analysis. Raw data were analyzed by the Affymetrix NetAFFX Analysis Center online tools.
as §4

[7] = tested on: Renin (angiotensinogenase); test: Microarray gene expression in peptide-treated TR146 cells: renin; assay type: cell-based; conditions: TR146 buccal mucosal cells, 2.0 μM peptide, 6 hours, vs mock-treated, Affymetrix Human Genome Focus Array
Protocol: as §1, §5, §6, §4

[8] = Body weight of mice on high-fat diet (HFD) co-administered peptides; assay type: in vivo; conditions: for body weight gain compared to control fed with HFD alone: peptide co-administered with HFD for 10 months; for body weight: peptide co-administered with high-fat diet (HFD) for 10 months, HFD control 54.7 g, regular diet 29.8 g
[9] = tested on: Amyloid Beta (A4) Precursor Protein (APP); test: Microarray gene expression in peptide-treated TR146 cells: APP; assay type: cell-based; conditions: TR146 buccal mucosal cells, 2.0 μM peptide, 6 hours, vs mock-treated, Affymetrix Human Genome Focus Array
Protocol: as §1
(§7) For microarray analysis, cells at 75-80% confluence in T75 flasks were treated with equimolar (2.0 μM) concentrations of a peptide consisting of the sequence RMPLPPRGCPAAAPWS (SEQ ID NO 10) or […] (SEQ ID NO 1). Mock-treated cells received same volume of solvent. […]
as §6
(§8) The nature of change of gene expression profile in response to each of the peptides consisting of the sequence RMPLPPRGCPAAAPWS (SEQ ID NO 10) or […] (SEQ ID NO 1) was determined. […]

[10] = tested on: Stathmin-1; test: Microarray gene expression in peptide-treated TR146 cells: Stathmin-1; assay type: cell-based; conditions: TR146 buccal mucosal cells, 2.0 μM peptide, 6 hours, vs mock-treated, Affymetrix Human Genome Focus Array
Protocol: as §1, §7, §6, §8

[11] = tested on: protein-tyrosine phosphatase, receptor-type, F; test: Microarray gene expression in peptide-treated TR146 cells: protein-tyrosine phosphatase, receptor-type, F; assay type: cell-based; conditions: TR146 buccal mucosal cells, 2.0 μM peptide, 6 hours, vs mock-treated, Affymetrix Human Genome Focus Array
Protocol: as §1, §7, §6, §8

[12] = tested on: Bleomycin hydrolase; test: Microarray gene expression in peptide-treated TR146 cells: bleomycin hydrolase; assay type: cell-based; conditions: TR146 buccal mucosal cells, 2.0 μM peptide, 6 hours, vs mock-treated, Affymetrix Human Genome Focus Array
Protocol: as §1
(§9) For microarray analysis, cells at 75-80% confluence in T75 flasks were treated with equimolar (2.0 μM) concentrations of a peptide consisting of the sequence […] (SEQ ID NO 1). […]
as §6
(§10) The nature of change of gene expression profile in response to the peptide consisting of the sequence […] (SEQ ID NO 1) was determined. […]
as §8

[13] = tested on: glutamate receptor, ionotropic, N-methyl D-aspartate 2A; test: Microarray gene expression in peptide-treated TR146 cells: NMDA 2A glutamate receptor; assay type: cell-based; conditions: TR146 buccal mucosal cells, 2.0 μM peptide, 6 hours, vs mock-treated, Affymetrix Human Genome Focus Array
Protocol: as §1, §9, §6, §10, §8

[14] = tested on: glutamate receptor, metabotropic 7; test: Microarray gene expression in peptide-treated TR146 cells: metabotropic glutamate receptor 7; assay type: cell-based; conditions: TR146 buccal mucosal cells, 2.0 μM peptide, 6 hours, vs mock-treated, Affymetrix Human Genome Focus Array
Protocol: as §1, §9, §6, §10, §8

[15] = tested on: glutamate receptor, metabotropic 8; test: Microarray gene expression in peptide-treated TR146 cells: metabotropic glutamate receptor 8; assay type: cell-based; conditions: TR146 buccal mucosal cells, 2.0 μM peptide, 6 hours, vs mock-treated, Affymetrix Human Genome Focus Array
Protocol: as §1, §9, §6, §10, §8

[16] = tested on: brain glutamate decarboxylase 2; test: Microarray gene expression in peptide-treated TR146 cells: brain glutamate decarboxylase 2; assay type: cell-based; conditions: TR146 buccal mucosal cells, 2.0 μM peptide, 6 hours, vs mock-treated, Affymetrix Human Genome Focus Array
Protocol: as §1, §9, §6, §10, §8

[17] = tested on: Apolipoprotein E (APOE) and receptors; test: Microarray gene expression in peptide-treated TR146 cells: APOE and receptors; assay type: cell-based; conditions: TR146 buccal mucosal cells, 2.0 μM peptide, 6 hours, vs mock-treated, Affymetrix Human Genome Focus Array
Protocol: as §1, §9, §6, §10, §8

[18] = tested on: TR146 buccal mucosal cells; test: Microarray gene expression profile of peptide-treated TR146 cells (number of genes altered); assay type: cell-based, human; conditions: 2.0 μM peptide, 6 hours
Protocol: as §1
as §5, with “a peptide consisting of the sequence […] (SEQ ID NO 1).” for “peptides.”
as §6
The nature of change of gene expression profile in response to the peptide consisting of the sequence […] (SEQ ID NO 1) was determined. Four result files were generated: 1. Molecular networks; 2. Biological functions and diseases; 3. Metabolic-, signalling-, and other molecular pathways; 4. Network node molecule lists. Fischer's exact test was used to calculate a p-value determining the probability that each biological function and/or disease assigned to that data set is due to chance alone.

With “EPVLGPVR (listed as Ovis sp.) [SEQ ID NO 8, peptide homologous with positions 195-202 of casein beta]” as the sequence, how does the “protein expression of leptin” value [1] read?
The value was “upregulated”.

With “EPVLGPVRGPFPI (listed as Ovis sp.) [SEQ ID NO 5, peptide homologous with positions 195 to 207 of casein beta]” as the sequence, how does the “gene expression of rho 2” value [2] read?
The value was “downregulated”.

And the “gene expression of gamma-aminobutyric acid A receptor (GABAAR)” value [3]?
Its value is “downregulated”.

And the “gene expression of beta 2 gamma-aminobutyric acid receptor, theta” value [4]?
Its value is “downregulated”.

What about the “gene expression of glutamate decarboxylase 2 (pancreatic islets, lung and brain, 65 kDa)” value [5] of the same sequence?
The value was “downregulated”.

What about the “protein expression of leptin” value [1] of the same sequence?
The value was “upregulated”.

For “FVAPFPEVFGKEKV (listed as Ovis sp.) [SEQ ID NO 2, peptide homologous with positions 39 to 52 of casein alpha S-1]”, which “gene expression of resistin” value [6] is on record?
The value was “down-regulated”.

What about the “gene expression of renin (angiotensinogenase)” value [7] of the same sequence?
Its value is “down-regulated”.

And the “protein expression of leptin” value [1]?
Its value is “upregulated”.

What about the “body weight gain compared to control fed with HFD alone” value [8] of the same sequence?
The value was “lower”.

And the body weight [8]?
The body weight was 52.1 g.

Which “protein expression of leptin” value [1] does the source give for “GPVRGPFPI (listed as Ovis sp.) [SEQ ID NO 4, peptide homologous with positions 199-207 of casein beta]” here?
Its value is “upregulated”.

With “RGPFPIIV (listed as Ovis sp.) [SEQ ID NO 9, peptide said to be homologous with positions 202-209 of casein alpha S-1]” as the sequence, how does the “body weight gain compared to control fed with HFD alone” value [8] read?
The value was “lower”.

What about the body weight [8] of the same sequence?
The body weight was 51.1 g.

For “RMPLPPRGCPAAAPWS (listed as Ovis sp.) [SEQ ID NO 10]”, which “gene expression of Amyloid Beta (A4) Precursor Protein (APP)” value [9] is on record?
The value was “downregulated”.

And the “gene expression of Stathmin-1” value [10]?
The value was “upregulated”.

What about the “gene expression of protein-tyrosine phosphatase, receptor-type, F” value [11] of the same sequence?
The value was “downregulated”.

And the “body weight gain compared to control fed with HFD alone” value [8]?
Its value is “lower”.

And the body weight [8]?
Its body weight is 50.1 g.

With RPKHPIKHQGLPQEVLNENLLRF [SEQ ID NO 1] as the sequence, how does the “gene expression of bleomycin hydrolase” value [12] read?
Its value is “Upregulation; also recorded: upregulated”.

And the “gene expression of glutamate receptor, ionotropic, N-methyl D-aspartate 2A” value [13]?
The value was “Downregulation; also recorded: down-regulated”.

And the “gene expression of glutamate receptor, metabotropic 7” value [14]?
Its value is “Downregulation; also recorded: down-regulated”.

What about the “gene expression of glutamate receptor, metabotropic 8” value [15] of the same sequence?
Its value is “Downregulation; also recorded: down-regulated”.

What about the “gene expression of brain glutamate decarboxylase 2” value [16] of the same sequence?
The value was “Downregulation; also recorded: down-regulated”.

What about the “gene expression of Apolipoprotein E (APOE) and receptors” value [17] of the same sequence?
Its value is “Downregulation; also recorded: down-regulated”.

And the “number of genes down-regulated” value [18]?
The value was 296 genes.

What about the “number of genes up-regulated” value [18] of the same sequence?
Its value is 101 genes.

And the “number of genes with altered expression” value ([18]; total altered)?
Its value is ~400 genes.

And the “protein expression of leptin” value [1]?
Its value is “upregulated”.

For “SDIPNPIGSENSEKTTMPLW (listed as Ovis sp.) [SEQ ID NO 3, peptide homologous with positions 195-214 of casein alpha S-1]”, which “protein expression of leptin” value [1] is on record?
The value was “upregulated”.

For “SLSQSKVLPVPQKAVPYPQRDMPIQ (listed as Ovis sp.) [SEQ ID NO 7, peptide homologous with positions 164-188 of casein beta]”, which “protein expression of leptin” value [1] is on record?
The value was “upregulated”.

Which “protein expression of leptin” value [1] does the source give for “VPYPQRDMPIQ (listed as Ovis sp.) [SEQ ID NO 6, peptide homologous with positions 178-188 of casein beta]” here?
The value was “upregulated”.
